According to ChEMBL document CHEMBL5614385, “A peptide-salinomycin conjugate with a bystander effect reduces the stemness characteristics of ovarian cancer cells and enhances drug sensitivity” (Eur J Med Chem, 2024):
Values belong to the molecule of their own block, whether it stands above or below them. Active and inactive are the calls of the source. The rule behind the calls is not given here. Non-standard residues stand in square brackets, D forms with d. Residues, ends and D or L forms follow the SMILES beside them. Sar = CNCC(=O)O

Columns and labels:
MKN-45 = assay: Cytotoxicity against human MKN-45 cells assessed as inhibition of cell growth incubated for 72 hrs by CCK8 assay; format: functional, cell-based; conditions: MKN-45, 72 h
SK-OV-3/CDDP [1] = assay: Sensitization of cisplatin-induced antiproliferative activity against human SK-OV-3/CDDP cells assessed as reduction in cell viability at 1 uM incubated for 72 hrs by CCK8 assay; format: functional, cell-based
A-431 = assay: Cytotoxicity against human A-431 cells assessed as inhibition of cell growth incubated for 72 hrs by CCK8 assay; format: functional, cell-based; conditions: A-431, 72 h
MCF7 = assay: Cytotoxicity against human MCF7 cells assessed as inhibition of cell growth incubated for 72 hrs by CCK8 assay; format: functional, cell-based; conditions: MCF7, 72 h
HeLa = assay: Cytotoxicity against human HeLa cells assessed as inhibition of cell growth incubated for 72 hrs by CCK8 assay; format: functional, cell-based
MIA PaCa-2 = assay: Cytotoxicity against human MIA PaCa-2 cells assessed as inhibition of cell growth incubated for 72 hrs by CCK8 assay; format: functional, cell-based; conditions: MIA PaCa-2, 72 h
CAL-27 = assay: Cytotoxicity against human CAL-27 cells assessed as inhibition of cell growth incubated for 72 hrs by CCK8 assay; format: functional, cell-based; conditions: CAL-27, 72 h
SK-OV-3 [2] = assay: Inhibition of cell migration in human SK-OV-3 cells at 10 uM incubated for 24 hrs by microscope based wound healing assay; format: functional
SK-OV-3 [3] = assay: Effect on CD44 expression in CD44 positive human SK-OV-3 cells; format: functional, cell-based
SK-OV-3/CDDP [4] = assay: Cytotoxicity against human SK-OV-3/CDDP cells assessed as inhibition of cell proliferation incubated for 72 hrs by CCK8 assay; format: functional, cell-based
SK-OV-3 [5] = assay: Inhibition of cell migration in human SK-OV-3 cells at 5 uM incubated for 24 hrs by microscope based wound healing assay; format: functional
A2780 = assay: Antitumor activity against CD44 negative human A2780 cells assessed as reduction in cell viability incubated for 72 hrs by CCK8 assay; format: functional, cell-based; conditions: A2780, 72 h
[6] = target: Vascular endothelial growth factor receptor 2 (Homo sapiens) (UniProt P35968); assay: Inhibition of VEGFR2 phosphorylation in human SK-OV-3 cells at 5 uM incubated for 24 hrs by Western blot analysis; format: cell-based
DU-145 = assay: Cytotoxicity against human DU-145 cells assessed as inhibition of cell growth incubated for 72 hrs by CCK8 assay; format: functional, cell-based; conditions: DU-145, 72 h
SK-OV-3 [7] = assay: Inhibition of AKT phosphorylation in human SK-OV-3 cells at 5 uM incubated for 24 hrs by Western blot analysis; format: cell-based
ACHN = assay: Cytotoxicity against human ACHN cells assessed as inhibition of cell growth incubated for 72 hrs by CCK8 assay; format: functional, cell-based
MDA-MB-231 = assay: Cytotoxicity against human MDA-MB-231 cells assessed as inhibition of cell growth incubated for 72 hrs by CCK8 assay; format: functional, cell-based; conditions: MDA-MB-231, 72 h
A549 = assay: Cytotoxicity against human A549 cells assessed as inhibition of cell growth incubated for 72 hrs by CCK8 assay; format: functional, cell-based; conditions: A549, 72 h
SK-OV-3 [8] = assay: Inhibition of cell invasion in human SK-OV-3 cells at 5 uM incubated for 24 hrs by crystal violet staining based transwell invasion assay; format: functional
SK-OV-3 [9] = assay: Downregulation of CD133 expression in human SK-OV-3 tumor stem cells at 10 uM incubated for 36 hrs by flow cytometric analysis; format: functional, cell-based
SK-OV-3 [10] = assay: Antitumor activity against CD44 positive human SK-OV-3 cells assessed as reduction in cell viability incubated for 72 hrs by CCK8 assay; format: functional, cell-based; conditions: SK-OV-3, 72 h
HCCLM3 = assay: Cytotoxicity against human HCCLM3 cells assessed as inhibition of cell growth incubated for 72 hrs by CCK8 assay; format: functional, cell-based; conditions: HCCLM3, 72 h

Vascular endothelial growth factor receptor 2 (Homo sapiens), sequence (P35968 whole entry): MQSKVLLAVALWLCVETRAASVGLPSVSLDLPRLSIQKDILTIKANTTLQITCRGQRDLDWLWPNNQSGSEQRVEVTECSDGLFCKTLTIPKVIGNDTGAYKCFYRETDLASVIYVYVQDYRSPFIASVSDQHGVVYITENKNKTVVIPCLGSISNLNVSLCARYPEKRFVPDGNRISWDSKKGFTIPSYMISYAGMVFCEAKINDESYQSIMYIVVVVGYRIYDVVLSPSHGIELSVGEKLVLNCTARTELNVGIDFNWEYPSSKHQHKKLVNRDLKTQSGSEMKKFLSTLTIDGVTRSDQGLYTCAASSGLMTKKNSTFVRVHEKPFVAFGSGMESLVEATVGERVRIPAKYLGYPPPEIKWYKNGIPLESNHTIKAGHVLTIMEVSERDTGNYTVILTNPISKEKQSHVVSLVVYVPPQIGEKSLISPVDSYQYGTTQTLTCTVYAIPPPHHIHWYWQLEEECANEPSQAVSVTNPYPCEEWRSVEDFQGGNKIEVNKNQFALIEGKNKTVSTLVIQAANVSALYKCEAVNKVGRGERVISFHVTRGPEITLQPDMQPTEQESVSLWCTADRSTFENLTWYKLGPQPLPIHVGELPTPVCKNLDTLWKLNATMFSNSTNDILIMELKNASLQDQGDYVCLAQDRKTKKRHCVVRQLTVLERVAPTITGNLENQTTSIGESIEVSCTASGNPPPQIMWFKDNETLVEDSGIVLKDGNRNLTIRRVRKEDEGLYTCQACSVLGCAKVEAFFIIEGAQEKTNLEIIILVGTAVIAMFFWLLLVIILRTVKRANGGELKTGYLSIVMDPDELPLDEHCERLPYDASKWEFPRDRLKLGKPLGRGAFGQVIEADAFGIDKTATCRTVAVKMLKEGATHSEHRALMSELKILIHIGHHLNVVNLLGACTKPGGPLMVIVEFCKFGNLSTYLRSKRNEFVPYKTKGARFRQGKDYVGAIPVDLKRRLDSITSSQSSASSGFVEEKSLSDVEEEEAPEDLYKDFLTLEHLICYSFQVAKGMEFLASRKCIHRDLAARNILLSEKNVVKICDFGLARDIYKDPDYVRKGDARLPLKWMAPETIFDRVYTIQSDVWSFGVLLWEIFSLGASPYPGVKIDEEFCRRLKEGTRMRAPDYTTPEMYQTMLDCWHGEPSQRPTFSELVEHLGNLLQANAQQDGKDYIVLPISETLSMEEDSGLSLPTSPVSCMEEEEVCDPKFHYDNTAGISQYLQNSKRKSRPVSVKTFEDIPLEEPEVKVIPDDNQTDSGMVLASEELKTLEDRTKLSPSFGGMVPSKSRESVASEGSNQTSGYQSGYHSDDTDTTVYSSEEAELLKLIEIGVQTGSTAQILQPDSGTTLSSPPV

SMILES: CC[C@@H](C(=O)[C@@H](C)[C@@H](O)[C@H](C)[C@@H]1O[C@@H]([C@@H](CC)C(=O)O)CC[C@@H]1C)[C@H]1O[C@]2(C=C[C@@H](O)[C@]3(CC[C@@](C)([C@H]4CC[C@](O)(CC)[C@H](C)O4)O3)O2)[C@H](C)C[C@@H]1C [SALINOMYCIN]
- IC50 (MKN-45): 6.49 µM
- Activity (SK-OV-3/CDDP [1]): Active
- IC50 (A-431): 5.27 µM
- IC50 (MCF7): 9.89 µM
- IC50 (HeLa): 25 µM
- IC50 (MIA PaCa-2): 5.03 µM
- IC50 (CAL-27): 30.2 µM
- inhibition (SK-OV-3 [2]): Active
- Activity (SK-OV-3 [3]): inactive
- IC50 (SK-OV-3/CDDP [4]): 10.3 µM
- inhibition (SK-OV-3 [5]): inactive
- IC50 (A2780): 0.16 µM
- inhibition [6]: Active
- IC50 (DU-145): 47.1 µM
- inhibition (SK-OV-3 [7]): Active
- IC50 (ACHN): 26 µM
- IC50 (MDA-MB-231): 0.9 µM
- IC50 (A549): 25.1 µM
- inhibition (SK-OV-3 [8]): Active
- Activity (SK-OV-3 [9]): Active
- IC50 (SK-OV-3 [10]): 12.4 µM
- IC50 (HCCLM3): 7.99 µM

- inhibition [6]: Active
SMILES: CC(=O)N[C@@H](CCCCN)C(=O)N1CCC[C@H]1C(=O)N[C@@H](CO)C(=O)N[C@@H](CO)C(=O)N1CCC[C@H]1C(=O)N1CCC[C@H]1C(=O)N[C@@H](CCC(=O)O)C(=O)N[C@@H](CCC(=O)O)C(=O)N(C)CC(=O)N(C)CC(=O)N(C)CC(=O)N(C)CC(=O)N(C)CC(=O)N(C)CC(=O)N(C)CC(=O)N(C)CC(=O)N(C)CC(=O)N(C)CC(=O)N[C@@H](C)C(N)=O (Ac-KPSSPPEE[Sar][Sar][Sar][Sar][Sar][Sar][Sar][Sar][Sar][Sar]A-NH2)
- inhibition (SK-OV-3 [7]): Active
